Laboratory results from patent publication US10329262B2, “Quinazolinone antibiotics” (priority 2013, dated 2019).
Like-named read-outs stand apart in the source and are kept apart here.

Key:
[1] = system: S. aureus ATCC 29213 (MSSA); assay: MIC, CLSI broth microdilution, S. aureus ATCC 29213; type: cell-based, Staphylococcus aureus
Protocol: (§1) MICs were evaluated following the CLSI microdilution method in BBL™ Mueller-Hinton II broth (Wikler et al., Clinical Laboratory Standards Institute Document M7-A7, 29 (2009)). Briefly, two-fold serial dilutions of compound were prepared in triplicate in 96-well plates and inoculated with 5×10^5 cfu/mL of the bacterial suspension. Plates were incubated at 37° C. for 16-20 hours.

[2] = system: S. aureus NRS70; assay: MIC, broth microdilution, S. aureus NRS70; type: cell-based, Staphylococcus aureus; conditions: for MIC: Staphylococcus aureus
Protocol: as §1

[3] = system: S. aureus NRS123; assay: MIC, broth microdilution, S. aureus NRS123; type: cell-based; conditions: Staphylococcus aureus
Protocol: as §1

[4] = system: S. aureus NRS119; assay: MIC, CLSI broth microdilution, S. aureus NRS119; type: cell-based, Staphylococcus aureus
Protocol: as §1

[5] = system: S. aureus NRS120; assay: MIC, CLSI broth microdilution, S. aureus NRS120; type: cell-based, Staphylococcus aureus
Protocol: as §1

[6] = system: S. haemolyticus ATCC 29970; assay: MIC, CLSI broth microdilution, S. haemolyticus ATCC 29970; type: cell-based
Protocol: as §1

[7] = in vivo; conditions: mouse, in vivo
Protocol: We conducted first fast PK studies (n=2 mice per time point, 5 time points) dosing the compounds iv, followed by full PK studies for selected compounds (n=3 mice per time point, 10-12 time points per route of administration, iv and po).
A single dose of compound 2 was administered to mice (n=3 per time point) by tail vein injection or by oral gavage at 10 mg/kg. Blood was collected by cardiac puncture in heparinized syringes at 2, 5, 20, and 40 min and at 1, 2, 3, 4, 8, 18, and 24 h after iv dosing and at 0.5, 1, 2, 3, 4, 6, 9, 24, and 30 h after po dosing. Blood was centrifuged to obtain plasma. A 50-μL aliquot of plasma was mixed with 100 μL of acetonitrile containing internal standard (5 μM final concentration), followed by centrifugation at 20,000 g for 15 min. The supernatant was analyzed by reverse-phase UPLC. PK parameters were calculated as described in the Plasma protein binding and Pharmacokinetics sections below (see also Gooyit et al. J. Med. Chem. 54, 6676-6690 (2011)).
The area under the concentration-time curve up to the last quantifiable sampling time (AUC0-last) was calculated by the trapezoidal rule. AUC0-∞ was calculated as AUC0-last+(Clast/k), where Clast is the concentration at the last quantifiable sampling time and k is the elimination rate constant. The concentration at time=0 (C0) was estimated from the first sampling times by back-extrapolation using log-linear regression analysis. Half-lives (t1/2α and t1/2β) were estimated from the linear portion of the initial or terminal concentration-time data by linear regression, where the slope of the line was the rate constant k and t1/2α=ln 2/k. Volume of distribution (Vd) was calculated as the dose divided by the initial concentration (C0). Clearance (CL) was calculated from the dose divided by AUC0-∞. Oral bioavailability (F) was calculated by dividing the AUCpo by the AUCiv, as equivalent iv and po doses were administered.

[8] = Metabolic stability in rat S9; type: in vitro ADME; conditions: rat S9, 2 μM
Protocol: Aliquots were taken at 0, 5, 10, 20, 30, 40, and 60 min, and mixed with two volumes of acetonitrile containing internal standard. The precipitated protein was centrifuged at 20,000 g for 15 min, and the supernatant was analyzed by reversed-phase UPLC.

[9] = Plasma protein binding, rapid equilibrium dialysis, mouse; type: in vitro ADME; conditions: pH 7.4, mice, 6 h dialysis
Protocol: Aliquots from both chambers were quenched with 1:2 v/v acetonitrile containing an internal standard. The samples were concentrated to dryness on a miVac concentrator and the residue resuspended in 50:50 acetonitrile/water. Samples were analyzed by reverse-phase ultraperformance liquid chromatography (UPLC) with UV/Vis detection. Plasma protein binding of quinazolinone 2 was 98.0±0.04% in mice and 96.5±0.70% in humans.

[10] = target: T1, PBP2a allosteric site (Staphylococcus aureus, UniProt Q53707); assay: Intrinsic fluorescence quenching of oxacillin-acylated PBP2a; type: binding, S. aureus
T1 construct: made in house
Protocol: FIG. 11. Binding of quinazolinone 2 to PBP2a allosteric site. […] (a) The change in the maximum fluorescence intensity was calculated as the difference compared to the intensity in the absence of compound. Any dilution effect was subtracted out using a buffer titration control. […] A nonlinear regression was used to fit the data, with an R^2 of 0.9997. (b) Emission scans of PBP2a intrinsic fluorescence with excitation at 280 nm. Antibiotic 2 was titrated in to give the final concentrations shown and 3 scans (1 min cycles) were averaged for each titration.
Therefore, we have evidence for binding of antibiotic 2 to the allosteric site (X-ray) and to the active site (kinetic assays for competitive inhibition and X-ray altered conformations for the active-site residues) of PBP2a). Binding of antibiotic 2 at the allosteric site induces conformational changes at the active site (FIG. 7B). All of these movements serve to double the area and the volume of the active site.
Therefore, we have evidence for binding of the antibiotic 2 to the allosteric site (X-ray) and to the active site (kinetic assays for competitive inhibition and X-ray altered conformations for the active-site residues) of PBP2a. Binding of antibiotic 2 at the allosteric site induces conformational changes at the active site (FIG. 7b). All of these movements serve to double the area and volume of the active site.

T1 sequence (Q53707 entry or part of it): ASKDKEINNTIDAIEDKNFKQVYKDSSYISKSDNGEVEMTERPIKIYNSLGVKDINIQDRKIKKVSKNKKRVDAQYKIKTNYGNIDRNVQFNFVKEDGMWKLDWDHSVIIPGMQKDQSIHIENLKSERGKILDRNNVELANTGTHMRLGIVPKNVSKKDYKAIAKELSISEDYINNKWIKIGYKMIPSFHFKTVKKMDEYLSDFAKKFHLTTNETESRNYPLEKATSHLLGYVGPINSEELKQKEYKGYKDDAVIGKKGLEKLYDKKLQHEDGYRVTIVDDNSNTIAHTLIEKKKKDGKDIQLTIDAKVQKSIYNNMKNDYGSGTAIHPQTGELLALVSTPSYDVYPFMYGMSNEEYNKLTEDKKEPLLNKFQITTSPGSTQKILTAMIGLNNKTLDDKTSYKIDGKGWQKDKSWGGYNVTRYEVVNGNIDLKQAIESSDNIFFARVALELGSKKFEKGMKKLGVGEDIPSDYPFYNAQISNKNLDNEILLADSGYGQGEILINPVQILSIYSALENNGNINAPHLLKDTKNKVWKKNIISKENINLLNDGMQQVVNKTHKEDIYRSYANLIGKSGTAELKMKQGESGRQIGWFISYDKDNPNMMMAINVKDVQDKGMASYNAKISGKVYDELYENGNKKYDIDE

N#Cc1ccc(/C=C/c2nc3ccccc3c(=O)n2-c2cccc(C(=O)O)c2)cc1.[Na] [Compound 2, Sodium (E)-3-(3-carboxyphenyl)-2-(4-cyanostyryl)quinazolin-4(3H)-one]
MIC ([1]; Staphylococcus aureus): 2 µg/mL
In vitro AB activity (MIC) ([1]; Table 2.1, S. aureus ATCC 29213): 2 µg/mL
Increase of MIC in the presence of BSA ([1]; with BSA vs without): 4 fold
MIC ([2]; NRS70): 2 µg/mL
MIC ([2]; NRS70, read-out: MIC NRS70): 4 µg/mL
In vitro AB activity (MIC) ([2]; Table 2.1, S. aureus NRS70): 2 µg/mL
MIC ([3]; NRS123): 2 µg/mL
MIC ([3]; NRS123, read-out: MIC NRS123): 4 µg/mL
MIC ([4]; Staphylococcus aureus, NRS119): 8 µg/mL
In vitro AB activity (MIC) ([4]; Table 2.1, S. aureus NRS119): 8 µg/mL
MIC ([5]; Staphylococcus aureus, NRS120): 8 µg/mL
In vitro AB activity (MIC) ([5]; Table 2.1, S. aureus NRS120): 8 µg/mL
MIC ([6]; Staphylococcus haemolyticus, ATCC29970): 1 µg/mL
In vitro AB activity (MIC) ([6]; Table 2.1, S. haemolyticus ATCC 29970): 1 µg/mL
clearance ([7]; ICR, iv, 10 mg/kg): 7.1 mL/min/kg
concentration at 24 h ([7]; ICR, iv, 10 mg/kg): 142 ± 53 ng/mL
t1/2elimination ([7]; ICR, iv, 10 mg/kg): 22 h
half-life ([7]; ICR, po, 10 mg/kg): 58 h
AUC ([7]; female, ICR, iv): 23500 ng·h/mL
clearance ([7]; female, ICR, iv): 7.1 mL/min/kg
Vd ([7]; female, ICR, iv, 10 mg/kg): 0.0076 L
half-life ([7]; female, ICR, iv, 10 mg/kg): 22 h
AUC ([7]; female, ICR, po, 10 mg/kg): 15500 ng·h/mL
bioavailability ([7]; female, ICR, po, 10 mg/kg, F (oral bioavailability)): 66%
bioavailability ([7]; 10 mg/kg, F (absolute oral bioavailability)): 66%
AUC(0-inf) ([7]; iv, 10 mg/kg): 23500 ng·h/mL
AUC(0-t) ([7]; iv, 10 mg/kg): 19700 ng·h/mL
C0 ([7]; iv, 10 mg/kg): 33000 ng/mL
Clearance as share of hepatic blood flow in mice ([7]; iv, 10 mg/kg): less than 10%
Distribution t1/2α ([7]; iv, 10 mg/kg): 0.243 h
Vd ([7]; iv, 10 mg/kg): 0.303 L/kg
Volume of distribution ([7]; iv, 10 mg/kg): 0.3 L/kg
clearance ([7]; iv, 10 mg/kg): 7.07 mL/min/kg
concentration at 24 h ([7]; iv, 10 mg/kg): 142 ± 53 ng/mL
t1/2distribution ([7]; iv, 10 mg/kg): 0.242 h
t1/2elimination ([7]; iv, 10 mg/kg): 22.3 h
Plasma level at 24 hours ([7]; iv, 10 mg/kg, 24 h): 142 ± 53 ng/mL
AUC(0-inf) ([7]; po, 10 mg/kg): 15500 ng·h/mL
AUC(0-t) ([7]; po, 10 mg/kg): 6550 ng·h/mL
Cmax ([7]; po, 10 mg/kg): 1290 ng/mL
Time of maximum concentration ([7]; po, 10 mg/kg): 1 h
half-life ([7]; po, 10 mg/kg): 58.2 h
t1/2distribution ([7]; po, 10 mg/kg): 2.06 h
Compound remaining after 1-h incubation [8]: 100%
fraction unbound at 6 h, 10 μM [9]: 0.02
Kd [10]: 16.3 µM
